Experimental data from patent publication US20100267561A1, “HERBICIDAL PYRIDAZINONE DERIVATIVES” (priority 2007, published 2010).

Key:
Assay type in all cases: in vivo
[1] = test system: umbrella sedge (Cyperus difformis); assay: Test B flooded paddy test plant response; details: Cyperus difformis, read-out: Plant response rating, Sedge, Umbrella
How it was run: (§1)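 Compounds were added directly to paddy water over 2-leaf-stage plants in pots flooded 3 cm above soil, water depth maintained. Visual injury scored against controls after 13 to 15 days in greenhouse, 0 (none) to 100 (complete control); dash indicates no result.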

[2] = test system: ducksalad (Heteranthera limosa); assay: Test B flooded paddy test plant response; details: Heteranthera limosa, read-out: Plant response rating, Ducksalad
How it was run: as §1

rice (Oryza sativa) = assay: Test B flooded paddy test plant response; details: Oryza sativa, read-out: Plant response rating, Rice
How it was run: as §1

[3] = test system: barnyardgrass (Echinochloa crus-galli); assay: Test B flooded paddy test plant response; details: Echinochloa crus-galli, read-out: Plant response rating, Barnyardgrass
How it was run: as §1

[4] = test system: large crabgrass (Digitaria sanguinalis); assay: Test B pre-/postemergence plant response; details: Preemergence
How it was run: (§2)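 Preemergence and postemergence (plants 2-18 cm, 1- to 4-leaf stage) applications used test chemicals in a non-phytotoxic solvent with surfactant. Plants were held in a greenhouse 13 to 15 days, then rated visually against controls on a 0-100 scale (0 no effect, 100 complete control).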

[5] = test system: surinam grass (Brachiaria decumbens); assay: Test B pre-/postemergence plant response; details: Preemergence
How it was run: as §2

[6] = test system: downy bromegrass (Bromus tectorum); assay: Test B pre-/postemergence plant response; details: Preemergence
How it was run: as §2

[7] = test system: green foxtail (Setaria viridis); assay: Test B pre-/postemergence plant response; details: Preemergence
How it was run: as §2

[8] = test system: common (oilseed) sunflower (Helianthus annuus); assay: Test B pre-/postemergence plant response; details: Preemergence
How it was run: as §2

[9] = test system: wheat (Triticum aestivum); assay: Test B pre-/postemergence plant response; details: Preemergence
How it was run: as §2

wild oat (Avena fatua) = assay: Test B pre-/postemergence plant response; details: Preemergence
How it was run: as §2

[10] = test system: morningglory (Ipomoea coccinea); assay: Test B pre-/postemergence plant response; details: Preemergence
How it was run: as §2

[11] = test system: velvetleaf (Abutilon theophrasti); assay: Test B pre-/postemergence plant response; details: Preemergence
How it was run: as §2

corn (Zea mays) = assay: Test B pre-/postemergence plant response; details: Preemergence
How it was run: as §2

[12] = Flood (flooded paddy test), 62 g ai/ha, scale 0 to 100, 0 no effect, 100 complete control
[13] = Flood (flooded paddy test), 125 g ai/ha, scale 0 to 100, 0 no effect, 100 complete control
[14] = Flood (flooded paddy test), 250 g ai/ha, scale 0 to 100, 0 no effect, 100 complete control
[15] = Flood, 31 g ai/ha, scale 0 to 100

With `Cc1cn(-c2ccc(Cl)cc2)nc1-c1c(O)cnn(C)c1=O` [Compound 30, 4-[1-(4-chlorophenyl)-4-methyl-1H-pyrazol-3-yl]-5-hydroxy-2-methyl-3(2H)-pyridazinone] the pest or weed control at 62 g/ha [1, 12] was 0%, the pest or weed control at 125 g/ha [1, 13] was 0% and the pest or weed control at 250 g/ha [1, 14] was 0%. The pest or weed control at 31 g/ha [1, 15] was 0%, the pest or weed control at 62 g/ha [2, 12] was 0% and the pest or weed control at 125 g/ha [2, 13] was 0%. The pest or weed control at 250 g/ha [2, 14] was 0%, the pest or weed control at 31 g/ha [2, 15] was 0% and the plant injury at 62 g/ha (rice (Oryza sativa); [12]) was 0%. The plant injury at 125 g/ha (rice (Oryza sativa); [13]) was 0%, the plant injury at 250 g/ha (rice (Oryza sativa); [14]) was 0% and the plant injury at 31 g/ha (rice (Oryza sativa); [15]) was 0%. It also gave a pest or weed control at 62 g/ha [3, 12] of 0%, a pest or weed control at 125 g/ha [3, 13] of 0% and a pest or weed control at 250 g/ha [3, 14] of 0%. It also gave a pest or weed control at 31 g/ha [3, 15] of 0%, a pest or weed control at 16 g/ha ([4]; Digitaria sanguinalis, pre-emergence, 16 g ai/ha, scale 0 to 100 (0 no effect, 100 complete control), read-out: Plant response rating, Crabgrass, Large) of 90% and a pest or weed control at 31 g/ha ([4]; Digitaria sanguinalis, pre-emergence, 31 g ai/ha, 0 to 100 scale, 0 no effect, 100 complete control, read-out: Plant response rating, Crabgrass, Large) of 100%. For the same molecule, the pest or weed control at 62 g/ha ([4]; Digitaria sanguinalis, pre-emergence, 62 g ai/ha, scale 0 to 100, read-out: Plant response rating, Crabgrass, Large) was 100%, the “Crabgrass, Large plant response rating” value ([4]; 8 g ai/ha, scale 0 to 100) was 80 and the “Surinam Grass plant response rating” value ([5]; 8 g ai/ha, scale 0 to 100) was 10. For the same molecule, the pest or weed control at 16 g/ha ([5]; Urochloa decumbens, pre-emergence, 16 g ai/ha, scale 0 to 100 (0 no effect, 100 complete control), read-out: Plant response rating, Surinam Grass) was 60%, the pest or weed control at 31 g/ha ([5]; Urochloa decumbens, pre-emergence, 31 g ai/ha, 0 to 100 scale, 0 no effect, 100 complete control, read-out: Plant response rating, Surinam Grass) was 90% and the pest or weed control at 62 g/ha ([5]; Urochloa decumbens, pre-emergence, 62 g ai/ha, scale 0 to 100, read-out: Plant response rating, Surinam Grass) was 95%. The pest or weed control at 16 g/ha ([6]; Bromus tectorum, pre-emergence, 16 g ai/ha, scale 0 to 100 (0 no effect, 100 complete control), read-out: Plant response rating, Bromegrass, Downy) was 10%, the pest or weed control at 31 g/ha ([6]; Bromus tectorum, pre-emergence, 31 g ai/ha, 0 to 100 scale, 0 no effect, 100 complete control, read-out: Plant response rating, Bromegrass, Downy) was 10% and the pest or weed control at 62 g/ha ([6]; Bromus tectorum, pre-emergence, 62 g ai/ha, scale 0 to 100, read-out: Plant response rating, Bromegrass, Downy) was 85%. For the same molecule, the “Bromegrass, Downy plant response rating” value ([6]; 8 g ai/ha, scale 0 to 100) was 0, the “Foxtail, Green plant response rating” value ([7]; 8 g ai/ha, scale 0 to 100) was 0 and the pest or weed control at 16 g/ha ([7]; Setaria viridis, pre-emergence, 16 g ai/ha, scale 0 to 100 (0 no effect, 100 complete control), read-out: Plant response rating, Foxtail, Green) was 0%. It also gave a pest or weed control at 31 g/ha ([7]; Setaria viridis, pre-emergence, 31 g ai/ha, 0 to 100 scale, 0 no effect, 100 complete control, read-out: Plant response rating, Foxtail, Green) of 100%, a pest or weed control at 62 g/ha ([7]; Setaria viridis, pre-emergence, 62 g ai/ha, scale 0 to 100, read-out: Plant response rating, Foxtail, Green) of 100% and a pest or weed control at 16 g/ha ([8]; Helianthus annuus, pre-emergence, 16 g ai/ha, scale 0 to 100 (0 no effect, 100 complete control), read-out: Plant response rating, Sunflower) of 0%. The pest or weed control at 31 g/ha ([8]; Helianthus annuus, pre-emergence, 31 g ai/ha, 0 to 100 scale, 0 no effect, 100 complete control, read-out: Plant response rating, Sunflower) was 0%, the pest or weed control at 62 g/ha ([8]; Helianthus annuus, pre-emergence, 62 g ai/ha, scale 0 to 100, read-out: Plant response rating, Sunflower) was 0% and the “Sunflower plant response rating” value ([8]; 8 g ai/ha, scale 0 to 100) was 0. The “Wheat plant response rating” value ([9]; 8 g ai/ha, scale 0 to 100) was 0, the plant injury at 16 g/ha ([9]; Triticum aestivum, pre-emergence, 16 g ai/ha, scale 0 to 100 (0 no effect, 100 complete control), read-out: Plant response rating, Wheat) was 0% and the plant injury at 31 g/ha ([9]; Triticum aestivum, pre-emergence, 31 g ai/ha, 0 to 100 scale, 0 no effect, 100 complete control, read-out: Plant response rating, Wheat) was 0%. For the same molecule, the plant injury at 62 g/ha ([9]; Triticum aestivum, pre-emergence, 62 g ai/ha, scale 0 to 100, read-out: Plant response rating, Wheat) was 10%, the pest or weed control at 16 g/ha (wild oat (Avena fatua); Avena fatua, pre-emergence, 16 g ai/ha, scale 0 to 100 (0 no effect, 100 complete control), read-out: Plant response rating, Oat, Wild) was 50% and the pest or weed control at 31 g/ha (wild oat (Avena fatua); Avena fatua, pre-emergence, 31 g ai/ha, 0 to 100 scale, 0 no effect, 100 complete control, read-out: Plant response rating, Oat, Wild) was 50%. The pest or weed control at 62 g/ha (wild oat (Avena fatua); Avena fatua, pre-emergence, 62 g ai/ha, scale 0 to 100, read-out: Plant response rating, Oat, Wild) was 80%, the “Oat, Wild plant response rating” value (wild oat (Avena fatua); 8 g ai/ha, scale 0 to 100) was 50 and the pest or weed control at 16 g/ha ([10]; Ipomoea, pre-emergence, 16 g ai/ha, scale 0 to 100 (0 no effect, 100 complete control), read-out: Plant response rating, Morningglory) was 0%. The pest or weed control at 31 g/ha ([10]; Ipomoea, pre-emergence, 31 g ai/ha, 0 to 100 scale, 0 no effect, 100 complete control, read-out: Plant response rating, Morningglory) was 0%, the “Morningglory plant response rating” value ([10]; 8 g ai/ha, scale 0 to 100) was 0 and the pest or weed control at 16 g/ha ([11]; Abutilon theophrasti, pre-emergence, 16 g ai/ha, scale 0 to 100 (0 no effect, 100 complete control), read-out: Plant response rating, Velvetleaf) was 0%. The pest or weed control at 31 g/ha ([11]; Abutilon theophrasti, pre-emergence, 31 g ai/ha, 0 to 100 scale, 0 no effect, 100 complete control, read-out: Plant response rating, Velvetleaf) was 0%, the pest or weed control at 62 g/ha ([11]; Abutilon theophrasti, pre-emergence, 62 g ai/ha, scale 0 to 100, read-out: Plant response rating, Velvetleaf) was 0% and the “Velvetleaf plant response rating” value ([11]; 8 g ai/ha, scale 0 to 100) was 0. For the same molecule, the “Corn plant response rating” value (corn (Zea mays); 8 g ai/ha, scale 0 to 100) was 0, the Corn plant response rating (crop injury, 0 = no effect, 100 = complete kill) at 16 g/ha (corn (Zea mays); Zea mays, pre-emergence, 16 g ai/ha, scale 0 to 100 (0 no effect, 100 complete control)) was 5% and the Corn plant response rating (crop injury, 0 = no effect, 100 = complete kill) at 31 g/ha (corn (Zea mays); Zea mays, pre-emergence, 31 g ai/ha, 0 to 100 scale, 0 no effect, 100 complete control) was 5%. The Corn plant response rating (crop injury, 0 = no effect, 100 = complete kill) at 62 g/ha (corn (Zea mays); Zea mays, pre-emergence, 62 g ai/ha, scale 0 to 100) was 5%.
